# What was measured:
# CYP1A1 gene expression [1] = assay: CYP1A1 gene expression after induction with indoor particles, qRT-PCR in keratinocytes; type: cell-based, human; conditions: for Induction mean ± SE (CYP1A1): 10 μM, Huber990 1.5 μg/cm2, untreated = 1
# Method: (§1) Gene expression was analyzed via qRT-PCR.
# IL-6 gene expression = assay: Particle induced IL-6 gene expression, qRT-PCR in keratinocytes; type: cell-based, human; conditions: SRM1650b, control = 1
# Method: as §1
# (§2) Ginger root CO2 extract has been dissolved in DMSO and diluted in medium. […] Gene expression was analyzed via qRT-PCR. […] Table 7 compiles the results for ginger root CO2 extract altered POMC and IL-6 gene expression
# (§3) Purple coneflower pressed juice has been dissolved directly in medium. […] Gene expression was analyzed via qRT-PCR. […] Table 8 compiles the results for purple coneflower pressed juice altered POMC and IL-6 gene expression
# (§4) A mixture of purple coneflower pressed juice and ginger root CO2 extract has been pre-dissolved in DMSO and diluted in medium. […] Gene expression was analyzed via qRT-PCR. […] Table 9 compiles the results for purple coneflower pressed juice altered POMC and IL-6 gene expression
# MMP1 gene expression = assay: Particle induced MMP1 gene expression, qRT-PCR in keratinocytes; type: cell-based, human; conditions: SRM1650b, control = 1
# Method: as §1
# CYP1A1 gene expression [2] = assay: CYP1A1 gene expression after induction with outdoor particles, qRT-PCR in keratinocytes; conditions: for CYP1A1 Induction mean ± SE: NHEK adult, 10 μM, untreated = 1
# Method: Adult human epidermal keratinocytes were cultured in keratinocyte medium without BPE and without EGF for 24 h prior to addition of model particles (see table 1.1). The model particles were suspended in phosphate buffered saline and were sonicated for 1 min and then directly added to the keratinocytes at 1.5 μg/cm^2. E/Z-2-benzylindene-5,6-dimethoxy-3,3-dimethylindan-1-one (BDDI) has been dissolved in DMSO and diluted in medium. Solutions containing the compound with maximal 0.1% DMSO were applied 2 h prior to treatment with the model particles. Gene expression was analyzed via qRT-PCR. For each gene, a specific PCR primer pair was designed as compiled in Table 2:
# Adult human epidermal keratinocytes were cultured in keratinocyte medium without BPE and without EGF for 24 h prior to addition of model particles (see table 1.1). The model particles were suspended in phosphate buffered saline and were sonicated for 1 min and then directly added to the keratinocytes at 1.5 μg/cm^2. Sclareolide has been dissolved in DMSO and diluted in medium. Solutions containing the compound with maximal 0.1% DMSO were applied 2 h prior to treatment with the model particles. Gene expression was analyzed via qRT-PCR. For each gene, a specific PCR primer pair was designed (see Table 2).
# POMC gene expression = assay: Particle induced POMC gene expression, qRT-PCR in keratinocytes; type: cell-based, human; conditions: SRM1650b, control = 1
# Method: as §1, §2, §3, §4
substance,measurement,setting,value
"E/Z-2-benzylindene-5,6-dimethoxy-3,3-dimethylindan-1-one [BDDI]",Induction mean ± SE (CYP1A1),CYP1A1 gene expression [1]; 6 h,0.05 ± 0.00
same,Induction mean ± SE (CYP1A1),CYP1A1 gene expression [1]; 24 h,0.20 ± 0.00
same,inhibition of particle induced Cyp1A1 gene expression (in words),CYP1A1 gene expression [1]; indoor model particles,capable to inhibit
same,IL-6 6 h,IL-6 gene expression; 1 μM,0.9 ± 0.067
same,IL-6 6 h,IL-6 gene expression; 2.5 μM,0.6 ± 0.006
same,IL-6 6 h,IL-6 gene expression; 10 μM,0.5 ± 0.01
same,MMP1 24 h,MMP1 gene expression; 1 μM,0.7 ± 0.014
same,MMP1 24 h,MMP1 gene expression; 2.5 μM,0.8 ± 0.016
same,MMP1 24 h,MMP1 gene expression; 10 μM,0.5 ± 0.022
same,CYP1A1 Induction mean ± SE,"CYP1A1 gene expression [2]; 6 h, SRM1650 1.5 μg/cm2",0.02 ± 0.00
same,CYP1A1 Induction mean ± SE,"CYP1A1 gene expression [2]; 6 h, SRM2975 1.5 μg/cm2, particle control 1.03",0.20 ± 0.00
same,CYP1A1 Induction mean ± SE,"CYP1A1 gene expression [2]; 24 h, SRM2975 1.5 μg/cm2",0.01 ± 0.00
same,inhibition of particle induced Cyp1A1 gene expression (in words),CYP1A1 gene expression [2]; outdoor model particles,capable to inhibit
same,POMC 6 h,POMC gene expression; 1 μM,0.9 ± 0.018
same,POMC 6 h,POMC gene expression; 2.5 μM,1.1 ± 0.02
same,POMC 6 h,POMC gene expression; 10 μM,0.9 ± 0.001

# — patent US10857089B2, “Cosmetic compositions comprising purple coneflower pressed juice” (Symrise AG, priority 2015, dated 2020)
